From US11414374B2, “Crystalline forms of vilanterol trifenatate and processes for their preparation” (Hovione Scientia Limited, priority 2017, dated 2022)
Values belong to the molecule of their own block, whether it stands above or below them.

Experiments:
Type in all cases: physicochemical
[1] = Dynamic vapor sorption (DVS) analysis / hygroscopicity (EP 7.0 classification); settings: for Hygroscopically (DVS): DVS hygroscopicity class; for XRPD after DVS: resulting form after DVS
Method: The hygroscopicity value is directly obtained from the sorption row at 80% RH, cycle 1.
Hygroscopicity of a sample of each of new form II and comparative form I was determined using the protocol provided below in conditions of 80% RH and 25° C.
The sample was subjected to DVS measuring using SMS-DVS intrinsic. The kinetic moisture sorption measurement was performed at 25° C. and in a RH % range described in the following: • From 40% RH to 90% RH • Form 90% RH to 0% RH • From 0% RH to 90% RH • From 90% RH to 0% RH
The sample was analyzed by XRPD after the analysis.
The hygroscopicity was calculated using the following equation: % Weight Change=[(W2−W1)/W1]*100 W1: weight of sample at the start of the experiment (25° C. and 40% RH) W2: weight of sample at 25° C. and 80% RH in the first absorption cycle

[2] = Storage stability of exposed powder at 25° C. and 60% RH for seven days, compared by XRPD; settings: 25° C. 60% RH, 7 d, resulting form
Method: Approximately 30 mg of exposed powder of comparative form 1 and new forms II and III, respectively, were stored at 25′C and 60% RH for seven days. Each powder was then analyzed by XRPD and its diffraction pattern was compared with that of untreated sample.

[3] = DSC - differential scanning calorimetry; settings: for DSC (onset) endo. Form 1 melting: endothermic event: Form 1 melting; for DSC (onset) endo. degradation: endothermic event: degradation; for DSC (onset) endo. solvent loss: endothermic event: solvent loss
Method: The analysis was carried out using a DSC Q200 TA instruments equipped with a refrigerator cooling system (RCS40) and autosampler. The sample was weighed in an aluminum hermetic pan with pinhole. The analysis was performed heating the sample from 25° C. to 350° C. at 10° C./min.

[4] = TGA / TGA-EGA thermogravimetric analysis with evolved gas analysis; settings: for EGA: evolved solvent identified; for TGA overall weight loss: overall loss of the named solvent(s)
Method: The analysis was carried out using the Mettler Toledo TGA/DSC1. The sample was weighed in an aluminum pan hermetically sealed with an aluminum pierced cover. The analysis was performed heating the sample from 25° C. to 320° C. at 10° C./min. TGA-FTIR coupled with Thermo Nicoled is 10 spectometer. The analysis was carried out using the mettler toledo TGA/DSC1. The sample was weighed in an aluminum pan hermetically sealed with an aluminum pierced cover. The analysis was performed heating the sample from 25° C. to 320° C. at 10° C./min. The evolved gas is compared with ft-ir spectra database for identification.

[5] = Stability test (exposed sample 16 h), form by XRPD; settings: resulting form
[6] = Stability test (sealed vial 18 h), form by XRPD; settings: resulting form
[7] = Stability test (60° C. 75% RH-3 d), form by XRPD; settings: resulting form
XRPD after Grinding = settings: resulting form after grinding

Hygroscopically (DVS) ([1]; listed as Form 12): Slightly
XRPD after DVS ([1]; listed as Form 12): Form 1
Stability test (25° C. 60% RH-7 d) ([2]; listed as Form 12): Form 1 (almost
DSC (onset) endo. Form 1 melting ([3]; listed as Form 12): endo. 134 °C Form 1
DSC (onset) endo. degradation ([3]; listed as Form 12): endo. 189 °C
DSC (onset) endo. solvent loss ([3]; listed as Form 12): endo. 21 °C solvent loss
EGA ([4]; listed as Form 12): Water and 1.2-
TGA overall weight loss ([4]; listed as Form 12): One loss of 61.6% w/w
Stability test (exposed sample 16 h) ([5]; listed as Form 12): Form 12
Stability test (sealed vial 18 h) ([6]; listed as Form 12): Form 12
Stability test (60° C. 75% RH-3 d) ([7]; listed as Form 12): Form 1 (almost
XRPD after Grinding (XRPD after Grinding; listed as Form 12): Amorphous (few
SMILES: OCc1cc([C@@H](O)CNCCCCCCOCCOCc2c(Cl)cccc2Cl)ccc1O [form XII, vilanterol trifenatate]

XRPD after DVS ([1]; listed as Form 11): Ascribable to Form 11
Stability test (25° C. 60% RH-7 d) ([2]; listed as Form 11): Form 1 (start
DSC (onset) endo. Form 1 melting ([3]; listed as Form 11): endo. 135 °C Form 1
DSC (onset) endo. degradation ([3]; listed as Form 11): endo. 188.6 °C
DSC (onset) endo. solvent loss ([3]; listed as Form 11): endo. 50-100 °C solvent loss
EGA ([4]; listed as Form 11): Cyclohexane and 2-
TGA overall weight loss ([4]; listed as Form 11): loss of 51% w/w
Stability test (exposed sample 16 h) ([5]; listed as Form 11): Form 11
Stability test (sealed vial 18 h) ([6]; listed as Form 11): Form 11
Stability test (60° C. 75% RH-3 d) ([7]; listed as Form 11): Form 1 (almost
XRPD after Grinding (XRPD after Grinding; listed as Form 11): Form 12
SMILES: OCc1cc([C@@H](O)CNCCCCCCOCCOCc2c(Cl)cccc2Cl)ccc1O [form XI, vilanterol trifenatate]
Hygroscopically (DVS) ([1]; listed as Form 11): Slightly hygroscopic (Increase in mass is less than 2% and equal to or greater than 0.2%)
